The source of these data is patent US20090069370A1, “AZACYCLYLISOQUINOLINONE AND ISOINDOLINONE DERIVATIVES AS HISTAMINE-3 ANTAGONISTS” (Wyeth, priority 2007, published 2009).

Molecules are shown by their SMILES. Counter-ions that a name gives are not always drawn.

Broadly, the Ki is a measure of affinity in units of concentration, obtained from inhibition or displacement. For orientation: melting point means the temperature, or range, at which the solid turns liquid.

T1 sequence (Q9Y5N1 whole entry): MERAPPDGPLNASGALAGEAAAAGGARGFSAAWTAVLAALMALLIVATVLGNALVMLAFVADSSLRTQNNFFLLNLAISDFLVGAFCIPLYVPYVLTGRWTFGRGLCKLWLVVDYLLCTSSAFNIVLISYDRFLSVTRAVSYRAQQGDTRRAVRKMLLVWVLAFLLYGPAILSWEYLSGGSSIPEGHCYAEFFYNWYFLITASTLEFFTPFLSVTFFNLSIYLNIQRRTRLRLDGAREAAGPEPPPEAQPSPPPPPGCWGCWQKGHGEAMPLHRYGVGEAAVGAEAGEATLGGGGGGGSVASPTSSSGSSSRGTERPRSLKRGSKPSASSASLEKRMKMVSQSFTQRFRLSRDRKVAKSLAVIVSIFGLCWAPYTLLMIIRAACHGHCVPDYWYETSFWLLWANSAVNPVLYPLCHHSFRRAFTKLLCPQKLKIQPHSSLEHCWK

One data set addresses T1, Human Histamine H3 Receptor (Homo sapiens, UniProt Q9Y5N1).
T1 construct: expressed in transfected cells; host or cells: HEK293T cells, stably transfected; membrane preparation
Put plainly: Methyl histamine binding in human histamine H3 receptor cell line. The settings on record: membranes of stably transfected HEK293T cells; radioligand 1 nM; Ki from IC50 by Cheng-Prusoff. The method, then:
Evaluation of Methyl Histamine Binding in Human Histamine H3 Receptor Cell Line
The affinity of test compounds for the histamine 3 (H3) receptor is evaluated in the following manner. Stably transfected HEK293T cells are grown in DMEM containing 10% heat inactivated FBS and G-418 (500 ug/ml). Cells are scraped from the plate, transferred to centrifuge tubes, washed one time in PBS by centrifugation in a Sorvall RT7 Plus centrifuge (2000 rpm 10 minutes, 4° C.). The resulting pellets are stored at −80° C. until ready for use. Cells are re-suspended in buffer (50 mM Tris pH=7.5) and placed in a Dounce homogenizer, douncing ten times to homogenize cells. The homogenate is spun down by centrifugation (Sorvall RT7 Plus, 1800 rpm 10 minutes, 4° C.). The supernatant is placed in a Corex tube and spun down by centrifugation (Sorvall RC 5c Plus, 17,000 rpm 20 minutes, 4° C.). The pellet is resuspended in buffer (50 mM Tris, pH 7.5). Protein concentration (ug/ul) is determined using the Micro-BCA Protein Determination. The binding assay is set up in a 96 well microtiter plate in a total volume of 250 uL. Non-specific binding is determined in the presence of 10 uM clobenpropit. The final radioligand concentration is 1 nM. The test compound is serially diluted using the Beckman Biomek2000 to a final approximate range of 100 uM to 100 pM. Membranes are suspended in buffer, homogenized in 2 bursts of ten seconds using a Vitris mechanical homogenizer set at power setting 5. Ten μg of membranes are added to each well. Following a one hour incubation at 30° C., the reaction is terminated by the addition of ice cold buffer and rapid filtration with a Packard Filtermate Harvester through a GF/B filter pre-soaked with 1% PEI for one hour. The plate is dried for one hour at 37° C. and 60 μL Microscint Scintillant is added to each well. The CPM per well is measured on a Packard Top Count NXT. Ki values are determined in nM. The Ki is calculated from the IC50 (i.e. the concentration of competing ligand which displaces 50% of the specific binding of the radioligand). CPM values are expressed as % specific binding and plotted vs compound concentration. A curve is fitted using a four-parameter logistic fit and the IC50 value is determined. The Ki is calculated from this using the Cheng-Prusoff equation: […]=IC50/1+(L/Kd) where L=concentration of free radioligand used in the assay, and Kd is the dissociation constant of the radioligand for the receptor. L is determined for each experiment by counting an aliquot of the diluted radioligand (corresponding to that added to each well) and the Kd has previously been determined under identical conditions for this cell line/radioligand.
For `O=C(c1ccc(-c2ccc3c(c2)CCN([C@@H]2CCN(C4CCCCC4)C2)C3=O)cc1)N1CCCC1` [Example 57, 2-[(3R)-1-cyclohexylpyrrolidin-3-yl]-6-[4-(pyrrolidin-1-ylcarbonyl)phenyl]-3,4-dihydroisoquinolin-1(2H)-one], the inhibition constant (Ki) was ≤ 10 nM.

Regarding `CCNC(=O)c1ccc(-c2ccc3c(c2)CCN([C@@H]2CCN(C4CCC4)C2)C3=O)cc1` [Example 45, 4-{2-[(3R)-1-cyclobutylpyrrolidin-3-yl]-1-oxo-1,2,3,4-tetrahydroisoquinolin-6-yl}-N-ethylbenzamide], the inhibitory constant (Ki) is ≤ 10 nM.

`NC(=O)c1ccc(Oc2ccc3c(c2)CCN(C2CCN(C4CCC4)CC2)C3=O)cc1` [Example 3, 4-{[2-(1-cyclobutylpiperidin-4-yl)-1-oxo-1,2,3,4-tetrahydroiso-quinolin-6-yl]oxy}benzamide Hydrochloride]: the inhibitory constant (Ki) is 10.1 to 25 nM.

`COC(=O)c1ccc(Oc2ccc3c(c2)CCN(C2CCN(C4CCC4)CC2)C3=O)cc1` [Example 1, methyl 4-{[2-(1-Cyclobutylpiperidin-4-yl)-1-oxo-1,2,3,4-tetrahydroisoquinolin-6-yl]oxy}benzoate] registered an inhibition constant (Ki) of 50.1 to 100 nM.

In the case of `O=C(c1ccc(COc2ccc3c(c2)CCN(C2CCN(C4CCC4)CC2)C3=O)cc1)N1CCCC1` [Example 20, 2-(1-Cyclobutylpiperidin-4-yl)-6-{[4-(pyrrolidin-1-ylcarbonyl)benzyl]oxy}-3,4-dihydroisoquinolin-1(2H)-one], the Ki is ≤ 10 nM.

Consider `CCNC(=O)c1ccc(Oc2ccc3c(c2)CCN([C@@H]2CCN(C4CCC4)C2)C3=O)cc1` [Example 34, 4-({2-[(3R)-1-cyclobutylpyrrolidin-3-yl]-1-oxo-1,2,3,4-tetrahydroisoquinolin-6-yl}oxy)-N-ethylbenzamide], for which the Ki was ≤ 10 nM.

Turning to `CC(C)N1CCC(N2CCc3cc(-c4ccc(C(=O)N5CCCC5)cc4)ccc3C2=O)CC1` [Example 67, 2-(1-isopropylpiperidin-4-yl)-6-[4-(pyrrolidin-1-ylcarbonyl)phenyl]-3,4-dihydroisoquinolin-1(2H)-one], the Ki was ≤ 10 nM.

Take `CC(C)N1CC[C@@H](N2CCc3cc(-c4ccc(C(=O)N5CCCC5)cc4)ccc3C2=O)C1` [Example 56, 2-[(3R)-1-(1-methylethyl)pyrrolidin-3-yl]-6-[4-(pyrrolidin-1-ylcarbonyl)phenyl]-3,4-dihydroisoquinolin-1(2H)-one]: the Ki was ≤ 10 nM.

`CCNC(=O)c1ccc(-c2ccc3c(c2)CCN([C@@H]2CCN(C4CCCC4)C2)C3=O)cc1` [Example 42, 4-{2-[(3R)-1-cyclopentylpyrrolidin-3-yl]-1-oxo-1,2,3,4-tetrahydroisoquinolin-6-yl}-N-ethylbenzamide]: the inhibitory constant (Ki) was ≤ 10 nM.

Take `O=C(c1ccc(Oc2ccc3c(c2)CCN(C2CCN(C4CCC4)CC2)C3=O)cc1)N1CCCC1` [Example 12, 2-(1-Cyclobutylpiperidin-4-yl)-6-[4-(pyrrolidin-1-ylcarbonyl)phenoxy]-3,4-dihydroisoquinolin-1(2H)-one]: the Ki was ≤ 10 nM.

Compound `O=C(NC1CCCC1)c1ccc(Oc2ccc3c(c2)CCN(C2CCN(C4CCC4)CC2)C3=O)cc1` [Example 9, 4-{[2-(1-Cyclobutylpiperidin-4-yl)-1-oxo-1,2,3,4-tetrahydroisoquinolin-6-yl]oxy}-N-cyclopentylbenzamide] displayed an inhibition constant Ki of 10.1 to 25 nM.

For the compound `N#Cc1ccc(-c2ccc3c(c2)CN(C2CCN(CC4CCCC4)CC2)C3=O)cc1` [Example 27, 4-{2-[1-(Cyclopentylmethyl)piperidin-4-yl]-1-oxo-2,3-dihydro-1H-isoindol-5-yl}benzonitrile], the Ki was in the range of 25.1 to 50 nM.

`CCN(CC)C(=O)c1ccc(Oc2ccc3c(c2)CCN(C2CCN(C4CCC4)CC2)C3=O)cc1` [Example 11, 4-{[2-(1-Cyclobutylpiperidin-4-yl)-1-oxo-1,2,3,4-tetrahydroisoquinolin-6-yl]oxy}-N,N-diethylbenzamide] gave an inhibition constant (Ki) of 25.1 to 50 nM.

As to `C[C@H]1CCCN1C(=O)c1ccc(-c2ccc3c(c2)CCN([C@@H]2CCN(C4CCC4)C2)C3=O)c(F)c1` [Example 73, 2-[(3R)-1-cyclobutylpyrrolidin-3-yl]-6-(2-fluoro-4-{[(2S)-2-methylpyrrolidin-1-yl]carbonyl}phenyl)-3,4-dihydroisoquinolin-1(2H)-one], the Ki is ≤ 10 nM.

Turning to `O=C(NC1CC1)c1ccc(Oc2ccc3c(c2)CCN(C2CCN(C4CCC4)CC2)C3=O)cc1` [Example 7, 4-{[2-(1-Cyclobutylpiperidin-4-yl)-1-oxo-1,2,3,4-tetrahydroisoquinolin-6-yl]oxy}-N-cyclopropylbenzamide], the Ki was ≤ 10 nM.

Regarding `NC(=O)c1ccc(COc2ccc3c(c2)CCN(C2CCN(C4CCC4)CC2)C3=O)cc1` [Example 15, 4-({[2-(1-cyclobutylpiperidin-4-yl)-1-oxo-1,2,3,4-tetrahydroiso-quinolin-6-yl]oxy}methyl)benzamide acid hydrochloride], the Ki was ≤ 10 nM.

For the compound `O=C(NC1CCC1)c1ccc(-c2ccc3c(c2)CCN([C@@H]2CCN(C4CCC4)C2)C3=O)c(F)c1` [Example 74, N-cyclobutyl-4-{2-[(3R)-1-cyclobutylpyrrolidin-3-yl]-1-oxo-1,2,3,4-tetrahydroisoquinolin-6-yl}-3-fluorobenzamide], the inhibitory constant (Ki) was ≤ 10 nM.

As to `O=C(NC1CCCC1)c1ccc(COc2ccc3c(c2)CCN(C2CCN(C4CCC4)CC2)C3=O)cc1` [Example 21, 4-({[2-(1-Cyclobutylpiperidin-4-yl)-1-oxo-1,2,3,4-tetrahydroisoquinolin-6-yl]oxy}methyl)-N-cyclopentylbenzamide], the Ki was ≤ 10 nM.

With `N#Cc1ccc(-c2ccc3c(c2)CN(C2CCNCC2)C3=O)cc1` [Example 22, 4-(1-oxo-2-piperidin-4-yl-2,3-dihydro-1H-isoindol-5-yl)benzonitrile hydrochloride], the Ki was > 100 nM.

With `O=C(NC1CCC1)c1ccc(COc2ccc3c(c2)CCN(C2CCN(C4CCC4)CC2)C3=O)cc1` [Example 19, N-Cyclobutyl-4-({[2-(1-cyclobutylpiperidin-4-yl)-1-oxo-1,2,3,4-tetrahydroisoquinolin-6-yl]oxy}methyl)benzamide], the Ki was ≤ 10 nM.

Tested on in the next data set: not given
Assay: not given
Details: not given
Compound `CNC(=O)c1ccc(-c2ccc3c(c2)CCN([C@@H]2CCN(C4CCC4)C2)C3=O)cc1` (as salt: hydrochloride) [Example 44, 4-{2-[(3R)-1-cyclobutylpyrrolidin-3-yl]-1-oxo-1,2,3,4-tetrahydroisoquinolin-6-yl}-N-methylbenzamide] came in with a melting point of 263 to 265 °C.

`N#Cc1ccc(-c2ccc3c(c2)CN(C2CCNCC2)C3=O)cc1` (as salt: hydrochloride) [Example 22, 4-(1-oxo-2-piperidin-4-yl-2,3-dihydro-1H-isoindol-5-yl)benzonitrile hydrochloride] came in with a melting point of 105 to 106 °C.

Turning to `O=C(NC1CC1)c1ccc(Oc2ccc3c(c2)CCN(C2CCN(C4CCC4)CC2)C3=O)cc1` (as salt: hydrochloride) [Example 7, 4-{[2-(1-Cyclobutylpiperidin-4-yl)-1-oxo-1,2,3,4-tetrahydroisoquinolin-6-yl]oxy}-N-cyclopropylbenzamide], the melting point fell in the range of 307 to 309 °C.

Compound `O=C(c1ccc(Oc2ccc3c(c2)CCN(C2CCN(C4CCC4)CC2)C3=O)cc1)N1CCCC1` (as salt: hydrochloride) [Example 12, 2-(1-Cyclobutylpiperidin-4-yl)-6-[4-(pyrrolidin-1-ylcarbonyl)phenoxy]-3,4-dihydroisoquinolin-1(2H)-one] registered a melting point of 253 to 255 °C.

`CN(C)C(=O)c1ccc(-c2ccc3c(c2)CCN([C@@H]2CCN(C4CCC4)C2)C3=O)c(F)c1` (as salt: hydrochloride) [Example 78, 4-{2-[(3R)-1-cyclobutylpyrrolidin-3-yl]-1-oxo-1,2,3,4-tetrahydroisoquinolin-6-yl}-3-fluoro-N,N-dimethylbenzamide] had a melting point of 209 to 210 °C.

Consider `O=C1NCCc2cc(-c3ccc4c(c3)CCN([C@@H]3CCN(C5CCC5)C3)C4=O)ccc21` (as salt: hydrochloride) [Example 89, (R)-2-(1-cyclobutylpyrrolidin-3-yl)-3,3′,4,4′-tetrahydro-6,6′-biisoquinoline-1,1′(2H,2′H)-dione hydrochloride], for which the melting point is > 274 °C.
